Results reported in ChEMBL document CHEMBL1148029, “Synthesis and radiopharmacological characterization of 2beta-carbo-2'-[18F]fluoroethoxy-3beta-(4-bromo-phenyl)tropane ([18F]MCL-322) as a PET radiotracer for imaging the dopamine transporter (DAT)” (Bioorg Med Chem, 2007).

How the values were obtained:
Muscle tissue = assay: Biodistribution in Wistar rat muscle at 300 uCi, iv after 5 mins; format: ADME, organism-based; settings: in vivo
Cerebellum [1] = assay: Biodistribution in Wistar rat cerebellum at 300 uCi, iv after 60 mins in presence of GBR-12909; format: ADME, organism-based; settings: in vivo, 1 h
Liver = assay: Biodistribution in Wistar rat liver at 300 uCi, iv after 5 mins; format: ADME, organism-based; settings: in vivo
[2] = Biodistribution in Wistar rat brown fat at 300 uCi, iv after 60 mins; format: ADME, organism-based, Brown adipose tissue; settings: in vivo, 1 h
Adrenal = assay: Biodistribution in Wistar rat adrenal gland at 300 uCi, iv after 5 mins; format: ADME, organism-based, Adrenal tissue; settings: in vivo
Cerebellum [3] = assay: Biodistribution in Wistar rat cerebellum at 300 uCi, iv after 60 mins; format: ADME, organism-based; settings: in vivo, 1 h
[4] = Biodistribution in Wistar rat rest of brain at 300 uCi, iv after 20 mins; format: ADME, organism-based; settings: in vivo
Blood = assay: Biodistribution in Wistar rat blood at 300 uCi, iv after 60 mins in presence of citalopram; format: ADME, organism-based; settings: in vivo, 1 h

`CN1C2CCC1C(C(=O)OCC[18F])C(c1ccc(Br)cc1)C2` (stereo not drawn) gave a Drug uptake (Muscle tissue) of 0.42 % ID/g, a Drug uptake (Cerebellum [1]) of 0.62 % ID/g and a Drug uptake (Liver) of 3.2 % ID/g. For the same compound, the Drug uptake [2] was 0.39 % ID/g, the Drug uptake (Adrenal) was 3.57 % ID/g and the Drug uptake (Cerebellum [3]) was 0.56 % ID/g. The Drug uptake [4] was 2.06 % ID/g and the Drug uptake (Blood) was 0.052 % ID/g.
